{"source": "patent EP2545917B1", "about": "“NOVEL EP4 AGONIST” (Kaken Pharmaceutical Co., Ltd., priority 2010, dated 2011)", "key": {"[1]": {"test_system": "dextran sodium sulfate-induced colitis", "assay": "Prophylactic effect on dextran sodium sulfate-induced colitis model in mice (BALB/c)", "assay_type": "in vivo", "details": "2.2 w/v% DSS", "procedure": "Female BALB/c mice (6 weeks old, Japan SLC) were purchased, acclimated for 1 week and used for the study. Except the normal group, the mice were allowed to freely drink a dextran sodium sulfate (to be abbreviated as DSS, MP Biochemicals, M.W. 36,000 - 50,000, Lot No. 3439J) solution prepared to 2.2 w/v% for 9 days to induce colitis. Compound F was orally administered at doses of 0.1, 0.3 and 1 mg/kg, once a day, daily, from the start day of DSS drinking (day 0) to one day before autopsy (day 9). To the control group was orally administered a solvent (1 vol% ethanol solution) at 10 mL/kg in the same manner.\nThus, to determine the level of diarrhea, the stool was graded into 6 levels; normal (score 0), spherical stool being not less than 50% (score 1), banana-shaped stool being less than 50% (score 2), banana-shaped stool being not less than 50% (score 3), muddy stool (score 4), watery stool (score […]) (stool consistency score). The fecal occult blood (including proctorrhagia) was graded using fecal occult blood slide 5 Shionogi II (Shionogi & Co., Ltd.) into 6 levels; negative (no change of the slide color from yellow, score 0), weakly positive (slightly blue green, score 1), positive (blue green, score 2), moderately positive (clear blue green, score 3), strongly positive (instantaneous color change to dark blue with color developer, score 4), and proctorrhagia (score 5). The sum of the stool consistency score and occult blood score was defined as the stool score. Eight to 10 animals were used for each group, and the results were expressed as average ± standard deviation. On the day of autopsy, after laparotomy under ether anesthesia and blood collection, the mice were exsanguinated to death. Then the large intestines were dissected from just below the cecum to the anus and the length thereof was measured."}, "[2]": {"test_system": "dextran sodium sulfate-induced colitis", "assay": "Dextran sodium sulfate-induced colitis model in mice (C57BL/6)", "assay_type": "in vivo", "details": "C57BL/6 mice, DSS, oral 0.3 and 1 mg/kg once a day", "procedure": "Female C57BL/6 mice (6 weeks old, Japan SLC) were purchased, acclimated for 1 week and used for the study. Except the normal group, the mice were allowed to freely drink a 3 or 2 w/v% DSS (MP Biochemicals, Lot No. 5653H and 5464H, respectively) solution for 1 week to induce colitis. BPS at a dose of 0.3 mg/kg and compound F at doses of 0.3 and 1 mg/kg were orally administered once a day, daily, from the start day of DSS drinking (day 0) to one day before autopsy (day 9). To the control group was orally administered a solvent (1 vol% ethanol solution) at 10 mL/kg in the same manner. The consistency of the stool was graded from score 0 to 4, with normal (0), partly loose stool (1), loose stool (2) and diarrhea (4). The blood feces was also graded from score 0 to 4, with normal (0), partly blood feces (1), blood feces (2) and blood feces plus proctorrhagia (4). The sum of both grades was defined as the stool score (maximum 8). Furthermore, the length of the large intestine was measured in the same manner as in Example 23. Six to 10 animals were used for each group, and the results are shown in average ± standard deviation."}, "IP-10": {"test_system": "IP-10", "assay": "Suppressive effect on cytokine production, whole blood stimulated with lipopolysaccharide, ELISA", "assay_type": "cell-based", "details": "human whole blood, indometacin, 48 hr, geometric mean of three volunteers"}, "[3]": {"test_system": "Human Platelet Aggregation", "assay": "Inhibitory effect on ADP-induced platelet aggregation in platelet-rich plasma", "assay_type": "cell-based", "details": "ADP 10 µmol/L, geometric mean of three volunteers", "procedure": "The inhibitory effect of compounds F and J, and carboxylate forms thereof on platelet aggregation was evaluated. The carboxylate forms were prepared by separating and purifying the compound synthesized in Example 15 with a column. Blood was drawn from 3 healthy volunteers using sodium citrate as an anticoagulant, and platelet-rich plasma was prepared. The platelet-rich plasma was treated with physiological saline or test compounds and, 2 min later, platelet aggregation was induced with adenosine diphosphate (ADP, final concentration 10 µmol/L) and recorded with a platelet aggregation measurement apparatus (nephelometry)."}, "intraocular pressure": {"test_system": "intraocular pressure", "assay": "Effect on intraocular pressure in rabbits", "assay_type": "in vivo, Japanese white rabbits", "details": "0.01 w/v% solution, 50 µL/eye", "procedure": "Japanese white rabbits (male, 10 weeks old, BIOTEC Co., Ltd.) were purchased, acclimated for 1 week and used for the study. Compound F solution (0.01 w/v%) was instilled once into the cornea of both eyes at a volume of 50 µL/eye with a micropipette. The intraocular pressure of the right eye was measured and the local irritative effect on the eye was evaluated using the left eye. After surface anesthesia with oxybupranol (Benoxil 0.4% instillation solution), the intraocular pressure was measured before ocular instillation ) and 1, 2, 3, 4, 6 and 8 hr after the instillation using a pneumatonometer (Alcon Ltd.). In addition, the local irritative effect on the eye was evaluated by scoring conjunctival congestion, conjunctival edema, cornea opacity, iris congestion, excretion and eye closure performance. For the evaluation, phosphate buffer was used for the solvent control group, and isopropyl unoprostone (Rescula eye drops, Santen Pharmaceutical Co., Ltd.) was used for comparison. Six animals were used for each group and the results were expressed as average."}, "Human IP": {"target": "T1, Human IP (Homo sapiens, UniProt P43119)", "T1 construct": "expressed in transfected cells; host or cells: COS-7", "T1 sequence (P43119 whole entry)": "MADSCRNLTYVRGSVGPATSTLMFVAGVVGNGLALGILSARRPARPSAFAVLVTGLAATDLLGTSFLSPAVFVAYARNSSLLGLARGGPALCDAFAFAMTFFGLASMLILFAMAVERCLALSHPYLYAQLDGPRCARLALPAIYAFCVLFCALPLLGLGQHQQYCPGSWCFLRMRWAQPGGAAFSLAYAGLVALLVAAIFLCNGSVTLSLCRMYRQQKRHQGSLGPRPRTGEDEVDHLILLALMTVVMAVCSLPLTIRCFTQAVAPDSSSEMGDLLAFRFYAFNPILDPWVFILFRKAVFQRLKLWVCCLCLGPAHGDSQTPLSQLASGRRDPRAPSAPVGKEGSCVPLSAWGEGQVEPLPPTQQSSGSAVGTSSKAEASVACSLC", "assay": "Receptor affinity, tritium-labeled iloprost binding to membranes of transfected COS-7 cells", "details": "COS-7 cell membranes", "procedure": "PG receptor affinity of compound F and compound J of the present invention was evaluated. Compound F used was one synthesized in Example 9, and compound J was prepared by separating and purifying the compound synthesized in Example 14 with a column (the same preparations were used in the following Examples). COS-7 cells were transfected with the genes of mouse EP4, human EP1-4 or human IP to overexpress the receptor and then the cell membranes were collected. As a labeled ligand, tritium-labeled PGE2 was used for EPs; tritium-labeled iloprost, for IP. The dissociation constant Kd value was obtained and inhibition constant Ki value of each test compound was determined in a conventional method. As a reference control, PGE2 was used for EPs; beraprost sodium (BPS), for IP."}, "[4]": {"test_system": "ethanol-induced gastric mucosal injury", "assay": "Ethanol-induced gastric mucosal injury model in rats", "assay_type": "in vivo, SD rats", "procedure": "Male SD rats (7 weeks old, Charles River) were purchased through Oriental BioService Inc., acclimated for 1 week and used for the study. The rats were grouped based on the body weight, placed in a clean cage set with a wire mesh floor one day before the study, fasted for 19 hr (without water for last 3 hr), and orally administered with ethanol (special grade, Nacalai Tesque, Lot No. V8A5862, 1.5 mL) in all groups to induce gastric mucosal injury. Compound F was orally administered at doses of 0.01, 0.1 and 1 mg/kg 30 min before induction of gastric mucosal injury at a volume of 5 mL/kg. To the control group was orally administered a solvent (1 vol% ethanol solution) at 5 mL/kg in the same manner. Eight animals were used for each group.\nThe rats were bled to death from the abdominal aorta and caudal vena cava under ether anesthesia after 1 hr from the ethanol administration, and the stomach was isolated. The isolated stomach was immediately filled with 2 vol% neutral formalin solution (6 mL) and fixed for 15 min. The stomach was incised along the midline of the greater curvature from the cardiac part to the pyloric part, and extended on a vinyl chloride board. The length and width of each ulcer were measured under a stereomicroscope, the area was calculated, and the sum thereof was taken as the total ulcer area."}}}
{"smiles": "Cc1cccc([C@@H](C)[C@H](O)/C=C/[C@@H]2[C@@H]3[C@H](C[C@H]2O)O/C(=C\\CCCc2nnn[nH]2)C3(F)F)c1", "note": "[Compound F, 4-[(Z)-(1S,5R,6R,7R)-6-[(1E,3R,4R)-3-hydroxy-4-(m-tolyl)-1-pentenyl]-7-hydroxy-2-oxa-4,4-difluoro-bicyclo[3.3.0]octan-3-ylidene]-1-(tetrazol-5-yl)butane]", "values": [{"measurement": "suppression of the increase in the stool score", "setting": "[1]; oral 0.1 mg/kg once a day", "value": "suppressive tendency"}, {"measurement": "suppression of the increase in the stool score", "setting": "[1]; oral 0.3 mg/kg once a day", "value": "significant"}, {"measurement": "suppression of the increase in the stool score", "setting": "[1]; oral 1 mg/kg once a day", "value": "significant"}, {"measurement": "effect on shortening of the large intestine", "setting": "[1]; oral 0.1, 0.3 and 1 mg/kg once a day", "value": "dose-dependent suppressive effect on shortening of the large intestine"}, {"measurement": "effect on the onset of colitis (stool score, colon shortening)", "setting": "[2]", "value": "superior prophylactic effect on the onset of colitis"}, {"measurement": "IC50", "setting": "IP-10", "value": 0.00114, "unit": "µM"}, {"measurement": "IC50", "setting": "[3]", "value": 0.917, "unit": "µM"}, {"measurement": "decrease in intraocular pressure", "setting": "intraocular pressure; 1 hr after the instillation", "value": 6.9, "unit": "mmHg"}, {"measurement": "decrease in intraocular pressure", "setting": "intraocular pressure; 2 hr after the instillation", "value": 9.3, "unit": "mmHg"}, {"measurement": "decrease in intraocular pressure", "setting": "intraocular pressure; 6 hr after the instillation", "value": 6.6, "unit": "mmHg"}, {"measurement": "Ki", "setting": "Human IP", "value": 0.67, "unit": "µM"}, {"measurement": "effect on total ulcer area (stomach)", "setting": "[4]; oral 1 mg/kg 30 min before ethanol", "value": "almost completely reduced the area"}, {"measurement": "effect on total ulcer area (stomach)", "setting": "[4]; oral 0.01, 0.1 and 1 mg/kg 30 min before ethanol", "value": "significantly reduced the total ulcer area in a dose-dependent manner from 0.01 mg/kg"}]}
